Results from US10077261B2, “Imidazolin-5-one derivative useful as FASN inhibitors for the treatment of cancer” (Janssen Pharmaceutica NV, priority 2012, dated 2018).

Columns and labels:
[1] = target: Fatty Acid Synthase Keto-reductase Domain (FASN KR) (Homo sapiens, UniProt P49327); experiment: Fatty Acid Synthase keto-reductase domain (FASN KR) inhibition, NADPH oxidation at 340 nm
Description: After 20 minutes incubation at room temperature the plate was measured again (T2).
The decrease in absorbance was calculated as (Absorbance before incubation T1)−(Absorbance following incubation T2).
A plot of Controlmin versus test compound concentration was fitted to a 4-parameter logistic curve using a non-linear least squares regression method.

[2] = target: T1, hFASN enzyme (full length) (Homo sapiens, UniProt P49327); experiment: Fatty Acid Synthase (FASN) inhibition scintillation proximity assay; type: biochemical; conditions: for inhibition at 10 µM: read-out: Human FASN % inhibition @ 10 μM, 10 μM test compound; for IC50: read-out: Human FASN pIC50 (converted)
T1 construct: 10 μL hFASN enzyme (full length, 300 ng, purified in house); made in house
Method in brief: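 Purified full-length hFASN (300 ng) converts ^3H-acetyl-CoA plus malonyl-CoA to ^3H-palmitate in 100 mM KH2PO4 pH 7.5, 1 mM DTT; compounds tested at 0.01–30 μM. Product captured on streptavidin imaging beads and read by LEADseeker at 610 nm after ≥24 h; 4-parameter logistic fit versus controls.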

[3] = system: A2780 ovarian cells; experiment: A2780 ovarian cell proliferation assay in lipid reduced medium, with palmitate (MTT); type: cell-based; conditions: Homo sapiens, A2780, 96 h; read-out: pIC50 A2780 Ovarian Cell, With Palmitate (converted)
Method in brief: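 Seeded cells were switched next day to lipid-reduced serum, exposed to compound and 25 μM palmitate complexed with fatty-acid-free BSA, and incubated 96 h. Proliferation was then determined by MTT absorbance at 544 nm, with a best-fit curve of signal against concentration.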

[4] = system: A2780 ovarian cells; experiment: A2780 ovarian cell proliferation assay in lipid reduced medium, without palmitate (MTT); type: cell-based; conditions: Homo sapiens, A2780, 96 h; read-out: pIC50 A2780 Ovarian Cell, Without Palmitate (converted)

Chain of Fatty Acid Synthase Keto-reductase Domain (FASN KR) (P49327 whole entry, the tested form may be a part): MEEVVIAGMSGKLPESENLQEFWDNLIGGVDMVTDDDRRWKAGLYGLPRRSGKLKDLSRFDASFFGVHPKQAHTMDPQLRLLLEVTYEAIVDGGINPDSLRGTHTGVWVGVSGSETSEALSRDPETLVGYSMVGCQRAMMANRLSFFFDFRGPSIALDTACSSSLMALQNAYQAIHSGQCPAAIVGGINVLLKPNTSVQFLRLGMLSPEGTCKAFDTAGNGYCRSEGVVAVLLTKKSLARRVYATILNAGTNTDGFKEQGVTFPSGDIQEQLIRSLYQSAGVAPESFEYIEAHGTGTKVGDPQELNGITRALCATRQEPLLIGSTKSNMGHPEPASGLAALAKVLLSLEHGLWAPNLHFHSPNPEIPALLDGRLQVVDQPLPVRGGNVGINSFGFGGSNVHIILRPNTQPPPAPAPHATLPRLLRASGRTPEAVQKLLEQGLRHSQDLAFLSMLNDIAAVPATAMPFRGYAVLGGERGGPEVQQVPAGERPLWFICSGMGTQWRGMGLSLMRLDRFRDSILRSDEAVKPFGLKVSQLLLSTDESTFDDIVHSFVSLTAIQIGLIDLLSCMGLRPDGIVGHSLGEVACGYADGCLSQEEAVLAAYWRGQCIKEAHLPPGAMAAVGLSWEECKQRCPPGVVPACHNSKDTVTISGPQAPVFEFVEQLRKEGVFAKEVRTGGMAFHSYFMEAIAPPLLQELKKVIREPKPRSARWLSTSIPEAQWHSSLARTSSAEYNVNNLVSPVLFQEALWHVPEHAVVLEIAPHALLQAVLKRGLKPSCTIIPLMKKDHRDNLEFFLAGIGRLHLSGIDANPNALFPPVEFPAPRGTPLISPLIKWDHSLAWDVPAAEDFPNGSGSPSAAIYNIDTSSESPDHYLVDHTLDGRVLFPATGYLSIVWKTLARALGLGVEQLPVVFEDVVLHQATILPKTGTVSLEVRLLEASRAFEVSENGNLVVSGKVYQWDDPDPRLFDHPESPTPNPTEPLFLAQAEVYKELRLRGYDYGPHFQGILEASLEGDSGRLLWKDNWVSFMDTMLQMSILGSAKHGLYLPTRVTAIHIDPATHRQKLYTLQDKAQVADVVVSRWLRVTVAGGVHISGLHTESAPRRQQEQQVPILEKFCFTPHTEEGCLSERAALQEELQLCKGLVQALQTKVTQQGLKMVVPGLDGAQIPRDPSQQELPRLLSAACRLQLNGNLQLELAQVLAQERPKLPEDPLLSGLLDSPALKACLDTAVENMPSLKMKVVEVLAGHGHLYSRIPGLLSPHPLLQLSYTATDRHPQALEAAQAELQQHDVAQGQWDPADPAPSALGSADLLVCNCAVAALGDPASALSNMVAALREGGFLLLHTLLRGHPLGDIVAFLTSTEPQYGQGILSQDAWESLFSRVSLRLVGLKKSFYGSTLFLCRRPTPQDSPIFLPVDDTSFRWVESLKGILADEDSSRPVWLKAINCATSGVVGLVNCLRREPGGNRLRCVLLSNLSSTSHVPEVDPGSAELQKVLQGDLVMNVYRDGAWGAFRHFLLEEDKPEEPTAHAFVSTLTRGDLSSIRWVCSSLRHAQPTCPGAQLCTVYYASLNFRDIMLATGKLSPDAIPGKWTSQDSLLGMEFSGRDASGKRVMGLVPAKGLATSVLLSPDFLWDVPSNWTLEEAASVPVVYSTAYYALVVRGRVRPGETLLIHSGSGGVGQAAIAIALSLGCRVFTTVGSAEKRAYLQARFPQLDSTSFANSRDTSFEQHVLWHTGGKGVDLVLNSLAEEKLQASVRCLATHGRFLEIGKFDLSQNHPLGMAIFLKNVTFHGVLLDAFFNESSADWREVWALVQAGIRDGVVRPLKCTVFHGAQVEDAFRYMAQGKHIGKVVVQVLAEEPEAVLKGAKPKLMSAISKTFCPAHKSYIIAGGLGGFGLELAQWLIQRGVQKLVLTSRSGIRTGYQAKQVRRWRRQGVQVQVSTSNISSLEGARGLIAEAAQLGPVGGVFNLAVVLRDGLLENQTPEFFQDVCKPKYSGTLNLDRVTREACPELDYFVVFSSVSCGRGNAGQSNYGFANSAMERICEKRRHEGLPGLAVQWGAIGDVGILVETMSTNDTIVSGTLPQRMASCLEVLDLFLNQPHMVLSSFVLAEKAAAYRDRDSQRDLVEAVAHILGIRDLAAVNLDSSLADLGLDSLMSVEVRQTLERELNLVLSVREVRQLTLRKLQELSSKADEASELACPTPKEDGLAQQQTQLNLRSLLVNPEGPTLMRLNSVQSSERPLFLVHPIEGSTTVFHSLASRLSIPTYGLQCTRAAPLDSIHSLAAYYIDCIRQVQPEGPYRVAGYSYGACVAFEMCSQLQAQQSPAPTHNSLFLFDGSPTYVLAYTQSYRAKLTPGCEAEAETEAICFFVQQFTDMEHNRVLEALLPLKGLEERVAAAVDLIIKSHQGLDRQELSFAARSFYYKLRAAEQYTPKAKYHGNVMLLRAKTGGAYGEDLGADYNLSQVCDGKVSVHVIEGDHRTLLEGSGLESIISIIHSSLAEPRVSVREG
T1 sequence (P49327 whole entry): as the sequence (P49327 whole entry, the tested form may be a part) above

IC50 [1] [nM]	inhibition at 10 µM [2] [%]	IC50 [2] [nM]	IC50 [3] [nM]	IC50 [4] [nM]	SMILES
162	107	63.1	> 10000	339	O=C(C1CC1)N1CC[C@@H](CN2C(=O)C3(CCCC3)N=C2c2ccc(-c3cccc4[nH]ccc34)cc2)C1 [compound 68, 3-{[(3R)-1-(Cyclopropylcarbonyl)pyrrolidin-3-yl]methyl}-2-[4-(1H-indol-4-yl)phenyl]-1,3-diazaspiro[4.4]non-1-en-4-one]
166	110	43.7	> 10000	~282	Cc1cc(-c2ccc3occc3c2)ccc1C1=NC2(CC2)C(=O)N1CC1CN(C(=O)C2CC2)C1 [compound 287, 5-(4-(benzofuran-5-yl)-2-methylphenyl)-6-((1-(cyclopropanecarbonyl)azetidin-3-yl)methyl)-4,6-diazaspiro[2.4]hept-4-en-7-one]
646	107	135	> 10000	~245	CC(C)C(=O)N1CCC2(CC1)N=C(c1ccc(-c3ccc4[nH]ccc4c3)cc1)N(CC1CN(C(=O)C3CC3)C1)C2=O [compound 753, 3-{[1-(Cyclopropylcarbonyl)azetidin-3-yl]methyl}-2-[4-(1H-indol-5-yl)phenyl]-8-(2-methylpropanoyl)-1,3,8-triazaspiro[4.5]dec-1-en-4-one]
40.7	108	25.1	> 10000	20.9	O=C(C1CC1)N1CC[C@@H](CN2C(=O)C3(CCCC3)N=C2c2ccc(-c3ccc4cc[nH]c4c3)cc2F)C1 [compound 874, (R)-3-((1-(cyclopropanecarbonyl)pyrrolidin-3-yl)methyl)-2-(2-fluoro-4-(1H-indol-6-yl)phenyl)-1,3-diazaspiro[4.4]non-1-en-4-one]
234	107	75.9	> 10000	~832	O=C(C1CC1)N1CC[C@@H](CN2C(=O)C3(CC3)N=C2c2ccc(-c3ccc(Cl)cc3)cc2)C1 [compound 114, 5-(4′-Chlorobiphenyl-4-yl)-6-{[(3R)-1-(cyclopropylcarbonyl)pyrrolidin-3-yl]methyl}-4,6-diazaspiro[2.4]hept-4-en-7-one]
1550	100	282	> 10000	1620	O=C(C1CC1)N1CC[C@@H](CN2C(=O)C3(CCCC3)N=C2c2ccc(-c3cccc4cnccc34)cc2)C1 [compound 67, 3-{[(3R)-1-(Cyclopropylcarbonyl)pyrrolidin-3-yl]methyl}-2-(4-isoquinolin-5-ylphenyl)-1,3-diazaspiro[4.4]non-1-en-4-one]
295	107	135	> 10000	~89.1	Cc1nnc(-c2ccc(-c3ccc(C4=NC5(CCCC5)C(=O)N4C[C@@H]4CCN(C(=O)C5CC5)C4)c(C)c3)cc2)o1 [compound 882, (R)-3-((1-(cyclopropanecarbonyl)pyrrolidin-3-yl)methyl)-2-(3-methyl-4′-(5-methyl-1,3,4-oxadiazol-2-yl)-[1,1′-biphenyl]-4-yl)-1,3-diazaspiro[4.4]non-1-en-4-one]
282	106	74.1	> 10000	1100	O=C(C1CC1)N1CC[C@@H](CN2C(=O)C3(CCCC3)N=C2c2ccc(-c3cccc4ncccc34)cc2)C1 [compound 66, 3-{[(3R)-1-(Cyclopropylcarbonyl)pyrrolidin-3-yl]methyl}-2-(4-quinolin-5-ylphenyl)-1,3-diazaspiro[4.4]non-1-en-4-one]
2140	92.7	513	> 10000	5890	O=C(C1CC1)N1CCC(CN2C(=O)C3(CCCC3)N=C2c2ccc(-c3ccc4occc4c3)cc2)CC1 [compound 75, 1-[4-(1-Benzofuran-5-yl)phenyl]-3-{[1-(cyclopropylcarbonyl)piperidin-4-yl]methyl}-1,3-diazaspiro[4.4]non-1-en-4-one]
1170	93	603	> 10000	~676	COCc1nn(C)c2ccc(-c3ccc(C4=NC5(CC5)C(=O)N4CC4CN(C(=O)C5CC5)C4)c(C)c3)cc12 [compound 588, 6-{[1-(Cyclopropylcarbonyl)azetidin-3-yl]methyl}-5-{4-[3-(methoxymethyl)-1-methyl-1H-indazol-5-yl]-2-methylphenyl}-4,6-diazaspiro[2.4]hept-4-en-7-one]
263	116	75.9	> 10000	~2090	Cc1cc(-c2ccc(Cl)cc2)ccc1C1=NC2(CCCC2)C(=O)N1C[C@@H]1CCN(C(=O)C2CC2)C1 [compound 93, 2-(4′-Chloro-3-methylbiphenyl-4-yl)-3-{[(3R)-1-(cyclopropylcarbonyl)pyrrolidin-3-yl]methyl}-1,3-diazaspiro[4.4]non-1-en-4-one]
324	108	61.7	> 10000	145	O=C(C1CC1)N1CC(CN2C(=O)C3(CCCC3)N=C2c2ccc(-c3ccc4cnccc4c3)cc2)C1 [compound 79, 3-{[1-(Cyclopropylcarbonyl)azetidin-3-yl]methyl}-2-(4-isoquinolin-6-ylphenyl)-1,3-diazaspiro[4.4]non-1-en-4-one]
282	108	97.7	> 10000	182	N#Cc1ccc(-c2ccc(C3=NC4(CC4)C(=O)N3C[C@@H]3CCN(C(=O)C4CC4)C3)cc2)cc1 [compound 48, 4′-(6-{[(3R)-1-(Cyclopropylcarbonyl)pyrrolidin-3-yl]methyl}-7-oxo-4,6-diazaspiro[2.4]hept-4-en-5-yl)biphenyl-4-carbonitrile]
1780	89.9	759	> 10000	1860	O=C(C1CC1)N1CC(CN2C(=O)C3(CC3)N=C2c2ccc(-c3ccc4ocnc4c3)cc2)C1 [compound 52, 5-[4-(1,3-Benzoxazol-5-yl)phenyl]-6-{[1-(cyclopropylcarbonyl)azetidin-3-yl]methyl}-4,6-diazaspiro[2.4]hept-4-en-7-one]
1070	107	209	> 10000	2290	O=C(C1CC1)N1CC[C@@H](CN2C(=O)C3(CC3)N=C2c2ccc(-c3cccc(F)c3)cc2)C1 [compound 102, 6-{[(3R)-1-(Cyclopropylcarbonyl)pyrrolidin-3-yl]methyl}-5-(3′-fluorobiphenyl-4-yl)-4,6-diazaspiro[2.4]hept-4-en-7-one]
2040	82.2	933	> 10000	~3020	O=C(C1CC1)N1CC[C@@H](CN2C(=O)C3(CCCC3)N=C2c2ccc(-c3ccc4ncccc4c3)cc2)C1 [compound 11, 3-{[(3R)-1-(Cyclopropylcarbonyl)pyrrolidin-3-yl]methyl}-2-(4-quinolin-6-ylphenyl)-1,3-diazaspiro[4.4]non-1-en-4-one]
49	99.4	25.7	3800	~36.3	O=C(C1CC1)N1CC[C@@H](CN2C(=O)C3(CCCC3)N=C2c2ccc(-c3ccc4cnccc4c3)cc2)C1 [compound 12, 3-{[(3R)-1-(Cyclopropylcarbonyl)pyrrolidin-3-yl]methyl}-2-(4-isoquinolin-6-ylphenyl)-1,3-diazaspiro[4.4]non-1-en-4-one]
1070	109	117	> 10000	~1780	COc1cccc(-c2ccc(C3=NC4(CC4)C(=O)N3C[C@@H]3CCN(C(=O)C4CC4)C3)cc2)c1 [compound 113, 6-{[(3R)-1-(Cyclopropylcarbonyl)pyrrolidin-3-yl]methyl}-5-(3′-methoxybiphenyl-4-yl)-4,6-diazaspiro[2.4]hept-4-en-7-one]
1410	96.2	550	> 10000	3470	O=C(C1CC1)N1CC[C@@H](CN2C(=O)C3(CCCC3)N=C2c2ccc(-c3nc4ccccc4o3)cc2)C1 [compound 36, 2-[4-(1,3-Benzoxazol-2-yl)phenyl]-3-{[(3R)-1-(cyclopropylcarbonyl)pyrrolidin-3-yl]methyl}-1,3-diazaspiro[4.4]non-1-en-4-one]
174	106	47.9	> 10000	1380	Cc1cc(-c2ccc3occc3c2)ccc1C1=NC2(CCCC2)C(=O)N1C[C@@H]1CCN(C(=O)C2CC2)C1 [compound 72, 2-[4-(1-Benzofuran-5-yl)-2-methylphenyl]-3-{[(3R)-1-(cyclopropylcarbonyl)pyrrolidin-3-yl]methyl}-1,3-diazaspiro[4.4]non-1-en-4-one]
